In patent publication US20110189293A1, “THERAPEUTIC REGIMENS FOR THE TREATMENT OF IMMUNOINFLAMMATORY DISORDERS” (CombinatoRx, Incoporated, priority 2007, published 2011):

Tests used:
[1] = cited from earlier work; for Equivalent dose, equal to 5 mg prednisolone: BNF guidelines
[2] = Equivalent corticosteroid dosing (BNF clinical dosing equivalence); settings: BNF guidelines
Procedure: Equivalent potency in clinical dosing is well known.
The BNF guidelines are included in Table 2 below. More specifically, Table 2 provides doses of corticosteroids equivalent to 5 mg of prednisolone and equivalent to 1 mg of prednisolone when administered in a manner according to this invention.

Molecule	Equivalent dose, equal to 5 mg prednisolone [1] [mg]	Equivalent dose, equal to 1 mg prednisolone [2] [mg]	broadly similar dose from clinical dosing equivalence ([1]; nasal administration, BNF 37 March 1999) [µg]
methyl prednisone	4	0.8	
CC(=O)OCC(=O)[C@@]1(O)CC[C@H]2[C@@H]3CCC4=CC(=O)CC[C@]4(C)[C@H]3C(=O)C[C@@]21C [cortisone acetate]	25	5	
C[C@]12CCC(=O)C=C1CC[C@@H]1[C@@H]2[C@@H](O)C[C@@]2(C)[C@H]1CC[C@]2(O)C(=O)CO [Hydrocortisone]	20	4	
C[C@]12C=CC(=O)C=C1CC[C@H]1[C@@H]3C[C@@H](O)[C@](O)(C(=O)CO)[C@@]3(C)C[C@H](O)[C@@]12F [Triamcinolone]	4	0.8	110
CC(=O)OCC(=O)[C@@]12N=C(C)O[C@@H]1C[C@H]1[C@@H]3CCC4=CC(=O)C=C[C@]4(C)[C@H]3[C@@H](O)C[C@@]12C [Deflazacort]	6	1.2	
